These results are taken from patent publication EP1799188B1, “USE OF PEPTIDES AS AN ANTIOXIDANT AGENT FOR THE PREPARATION OF A COSMETIC AND/OR PHARMACEUTICAL COMPOSITION” (Ashland Specialties France, priority 2004, dated 2015).

This data set relates to fibroblastes primaires. The experiment in a line: Neutral red uptake cytotoxicity / cell viability test. In kind it is cell-based. The following applies: actif 1 %. The protocol:
Des fibroblastes primaires sont ensemencés sur une plaque 96 puits (à 20000 cellules par puits environ). Une fois que les cellules ont atteint 70 % de confluence, le dipeptide dimérisé Cys-Gly selon l'invention, dilué à 1 %, est appliqué sur la plaque durant 24 heures. Une moitié de la plaque est alors irradiée par des UVB à 100 mJ/cm^2 et l'autre moitié non irradiée. Les cellules sont ensuite remises en culture pendant 24 h en présence de l'actif, puis incubées en présence de rouge neutre.
Le rouge neutre (un colorant « supravital ») se fixe spécifiquement aux lysosomes des cellules vivantes, la coloration sera ainsi proportionnelle à la viabilité des cellules. Après l'ajout d'une solution de révélation, solubilisant le rouge neutre, l'absorbance est mesurée à 540 nm.
Les résultats obtenus, représentés dans le tableau ci-dessous, représentent le pourcentage de viabilité cellulaire en fonction des différentes conditions étudiées, par rapport à la condition contrôle.

In the case of `N[C@@H](CSSC[C@H](N)C(=O)NCC(=O)O)C(=O)NCC(=O)O` [actif], the “cytotoxicité (nocivité pour les cellules)” value is listed as “n'est pas nocif pour les cellules”.
